Where “and” joins values, the source holds several entries; their conditions need not be identical. Equal entries are not always repeated. Inconclusive results are not listed. Calls of active or inactive are those of the source. How the calls were made is not given here.
Each molecule was assayed on Toxoplasma gondii growth in host cells, no IFN-gamma (assay: compound activity on host-cell Toxoplasma growth – dose response (AID 1259420);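 further: host cells were HeLa; final incubation lasted 72 hours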).

Row | SMILES | AC50
1 | O=S(=O)(c1cccs1)N1CCCCN2[C@H](CO)[C@H](c3ccc(/C=C/c4ccccc4)cc3)[C@@H]2C1 | 29 µM
2 | COc1cccc(S(=O)(=O)N2CCCCN3[C@@H](CO)[C@H](c4ccc(C#CCC(C)C)cc4)[C@@H]3C2)c1 | 21.4 µM and 16.4 µM and 30.4 µM
3 | COc1cccc(-c2ccc(C3[C@@H]4CN(S(=O)(=O)Cc5ccccc5)C[C@H]3N4)cc2)c1 (stereo partly drawn) | 16.9 µM and 13.1 µM
4 | COc1ccc(C#Cc2ccc([C@@H]3[C@@H](CO)N4C(=O)CN(C(=O)NC(C)C)C[C@@H]34)cc2)cc1 | > 39 µM (inactive)
5 | COc1ccc(NC(=O)N2CCCCN3[C@H](CO)[C@@H](c4ccc(-c5ccccc5F)cc4)[C@@H]3C2)cc1 | 19.1 µM
6 | O=S1(=O)c2ccccc2O[C@H]2CCN(Cc3ccc(Cl)cc3)CC[C@H]2N1CC1CC1 | 22.5 µM
7 | CC(C)CC#Cc1ccc([C@H]2[C@@H](CO)N3CCCCN(C(=O)Nc4ccccc4)C[C@@H]23)cc1 | 15.5 µM
8 | C[C@H](O[C@H]1OCCN(Cc2n[nH]c(=O)[nH]2)[C@H]1c1ccc(F)cc1)c1cc(C(F)(F)F)cc(C(F)(F)F)c1 | 21.5 µM
9 | CC[C@]1(O)C[C@@H]2CN(CCc3c([nH]c4ccccc34)[C@@](C(=O)OC)(c3cc4c(cc3OC)N(C)[C@H]3[C@@](O)(C(=O)OC)[C@H](OC(C)=O)[C@]5(CC)C=CCN6CC[C@]43[C@@H]65)C2)C1 | < 0.16 µM
10 | O=S(=O)(c1ccccc1F)N1CC[C@@H]2[C@@H](CO)Nc3ccc(C4=CCCCC4)cc3[C@@H]21 | 11.8 µM
11 | CCCc1ccc(S(=O)(=O)N2CCC[C@@H]2C(=O)NCCc2csc(-c3ccccc3)n2)cc1 | 18.7 µM
12 | COc1cccc(CN2C[C@@H]3N[C@H](C2)C3c2ccc(-c3ccccc3C)cc2)c1 (stereo partly drawn) | 12.3 µM
13 | COc1ccc(-c2ccc3c(c2)[C@H]2[C@H](CCN2C(=O)c2cccc(F)c2)[C@H](CO)N3)cc1 | 14.3 µM
14 | CCc1cnc(N2[C@H](C#N)[C@H](c3ccc(C#Cc4ccccc4F)cc3)[C@@H]2CO)s1 | 11.3 µM
15 | CCc1ccccc1S(=O)(=O)N1CCc2nc(-c3ccc(OC)cc3)sc2C1 | 4.35 µM
16 | O=C(C[C@@H]1CC[C@@H]2[C@H](COC[C@H](O)CN2Cc2ccc3c(c2)OCO3)O1)N1CCCCC1 | > 39 µM (inactive)
17 | COCC1CN(C(=O)c2cc(C)on2)Cc2c1cnn2CC1CC1 (stereo not drawn) | > 39 µM (inactive)
18 | CC(C)CC#Cc1ccc([C@@H]2[C@@H](CO)N3C(=O)CN(C(=O)c4cccc(F)c4)C[C@@H]23)cc1 | 16.4 µM and 13.5 µM
19 | COc1ccccc1NC(=O)N1CCCCN2[C@H](CO)[C@H](c3ccc(-c4cccc(C#N)c4)cc3)[C@@H]2C1 | 33.7 µM
20 | C[C@@H]1CN(Cc2ccc(F)cc2)CCN1C(=O)COc1ccc(Cl)cc1NC(N)=O | > 39 µM (inactive)
21 | CC(C)(O)CC(=O)NCCn1ccc2ncnc(Nc3ccc(Oc4cccc(C(F)(F)F)c4)c(Cl)c3)c21 | > 39 µM (inactive)
22 | Cc1ccc(S(=O)(=O)N2C[C@H](O)COC[C@@H]3O[C@H](CC(=O)NCc4ccc5c(c4)OCO5)CC[C@H]32)cc1 | > 39 µM (inactive)
23 | Cc1ccccc1S(=O)(=O)N1CC[C@@H]2[C@H]1c1cc(-c3cccc(F)c3)ccc1N(C)[C@H]2CO | 10.7 µM

— PubChem BioAssay AID1259420 (Broad Institute, 2018)
